# According to patent US20040053234A1, “Polynucletides that control delta-6 desaturase genes and methods for identifying compounds for modulating delta-6 desaturase” (priority 2000, published 2004):
# Legend:
# [1] = molecular target: T1, hD6D-1 (with V5/6xHis tags) (Homo sapiens, UniProt O95864); test: Inhibition of hD6D-1 in spheroplasts of transformed Saccharomyces cerevisiae; conditions: [1-14C]-alpha-linolenic acid
# T1 sequence (O95864 1-444): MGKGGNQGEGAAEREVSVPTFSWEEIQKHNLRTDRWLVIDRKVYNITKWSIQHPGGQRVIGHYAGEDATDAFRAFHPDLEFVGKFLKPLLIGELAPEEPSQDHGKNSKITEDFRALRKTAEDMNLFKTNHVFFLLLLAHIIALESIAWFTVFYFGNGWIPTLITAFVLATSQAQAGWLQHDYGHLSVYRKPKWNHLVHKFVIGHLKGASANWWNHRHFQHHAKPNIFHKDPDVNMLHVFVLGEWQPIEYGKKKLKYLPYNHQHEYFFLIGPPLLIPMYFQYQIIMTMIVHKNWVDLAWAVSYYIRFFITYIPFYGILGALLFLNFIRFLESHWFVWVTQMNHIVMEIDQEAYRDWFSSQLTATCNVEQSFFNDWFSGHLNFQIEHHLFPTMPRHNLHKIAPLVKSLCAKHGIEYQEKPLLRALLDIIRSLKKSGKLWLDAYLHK
# Experimental: Saccharomyces cerevisiae transformed with pYr5003.1 without V5/6×His tags or pTh5002.1 with V5/6×His tags were grown in modified SC-U medium with 2% galactose to induce the expression of the gene that encodes the fatty acid delta-6-desaturase. After 16 h incubation, cells were centrifuged at 2060×g for 5 min at 4° C., washed once with distilled water and centrifuged again. The volume and weight of the cell pellet were measured Cells were suspended (1:2 w/v) in 0.1 M Tris.SO4 (pH 9.4), 10 mM DTT and incubated at 30° C. After 10 min incubation, the cell pellet was obtained by centrifugation, washed once (1:20 w/v) with 1.2 M sorbitol and suspended (1:1 w/v) in 1.2 M sorbitol, 20 mM phosphate buffer (pH 7.4) as described elsewhere (Daum et al., 1982, J. Biol. Chem., 257: 13028-13033). The 15,800× g (1 min) supernatant of Lyticase was added to the cell suspension at a concentration of 2000 U/ml and the suspension incubated at 30° C. with 50 rpm shaking. Conversion to spheroplasts was checked after 40 min incubation by diluting the suspension with distilled water followed by observation under the microscope (Schatz G. and Kovac L., 1974, Methods in Enzymology, 31A: 627-632).
# Spheroplasts were harvested by centrifugation at 2060×g for 5 min at 4° C. and washed once with 1.2 M sorbitol. Spheroplasts were suspended in modified SC-U medium with 1% tergitol, 1.2 M sorbitol and 2% galactose to maintain the induction conditions and to give an OD600 reading of approximately 2.5-3.0. A 10 ml aliquot of the spheroplast suspension was transferred to a 125 ml Erlenmeyer flask and incubated with 200 μL of n-propyl gallate in ethanol (final concentration in the culture ranged between 0.7 and 14.1 mM) at 30° C. in an orbital incubator set at 270 rpm After 30 min incubation 1 μCi of [1-^14C]-alpha-linolenic or [1-^14C]-linoleic acids were added to the cultures to a final concentration of 2 μM and further incubated for 120 min. At this time point, turbidity readings at OD600 were taken, spheroplasts were harvested by centrifugation and washed with Tris buffer (100 mM, pH 8.0) containing 0.1%/o BSA. Total lipids were extracted as described below.
# The radioactivity from aliquots of the supernatant, spheroplasts and whole cells was determined by liquid scintillation counting using a LS6500-Scintillation System (Beckman) prior to the lipid extraction. Total lipids were extracted from cells or spheroplasts with chloroform/methanol (2:1 v/v) according to the method of Folch et al., 1957, J. Biol. Chem., 226: 497-509. The total lipid extracts were methylated using boron trifluoride in methanol at 90° C. for 30 min.
# The desaturase activity was determined by measuring the conversion of radiolabelled linoleic acid to gammna-linolenic acid (18:2n-6 to 18:3n-6) and alpha-linolenic acid to stearidonic acid (18:3n-3 to 18:4n-3). The percent inhibition was calculated as described elsewhere (Kawashima et al., 1996, Biosci. Biotech. Biochem., 60:1672-1676):
# Inhibition % =(activity without the inhibitor−activity with the inhibitor)/activity without the inhibitor
# [2] = system: whole cells of transformed Saccharomyces cerevisiae; test: O.D.600 and substrate radioactivity recovered in whole yeast cells; conditions: hD6D-1 whole cells
# Experimental: Transformed Saccharomyces cerevisiae pTh5002.1 with V5/6xHis tags were incubated in a 125 ml Erlenmeyer flask containing 9 ml of modified SC-U medium with 1% tergitol (O.D.6000.4, approximately 3.2×10^6 cells) and 200 μl of 7, 14 or 28 mM n-propyl gallate in ethanol. After 1 h incubation in an orbital incubator at 270 rpm and 30° C., 1 μCi of potassium salts of [1-^14C]-linoleic or [1-^14C]-alpha-linolenic acids (dissolved in modified SC-U medium and 1% tergitol) were added to the cell suspension to a final concentration of 2 μM. After 5 h incubation with the inhibitor, cells reached the log phase and the transgene expression was induced with the addition of 1 ml of galactose to a final concentration of 2%.
smiles,measurement,setting,value
"CCCOC(=O)c1cc(O)c(O)c(O)c1 [n-propyl gallate, Propyl ester of 3,4,5-trihydroxybenzoic acid]",% of inhibition,[1]; inhibitor 0.7 mM,11.6%
same,% of inhibition,[1]; inhibitor 1.4 mM,18.8%
same,% of inhibition,[1]; inhibitor 2.8 mM,56.4%
same,% of inhibition,[1]; inhibitor 14.1 mM,100%
same,O.D.600,[2]; inhibitor 7 mM,9.3
same,O.D.600,[2]; inhibitor 14 mM,7.2
same,O.D.600,[2]; inhibitor 28 mM,0
